molecular target: human PDE2A1 (Homo sapiens (Human), UniProt O00408); assay: IMAP fluorescence polarization assay, human PDE2A1 (PDE selectivity panel); type: biochemical; conditions: not given
Protocol: The activity of the compounds in accordance with the present invention as PDE2 inhibitors may be readily determined using a fluorescence polarization (FP) methodology (Huang, W., et al., J. Biomol Screen, 2002, 7: 215).
Dose-inhibition profiles for each compound were characterized by fitting the mP data to a four-parameter equation given below.
Selectivity for PDE2, as compared to other PDE families, was assessed using the IMAP® technology. Human PDE10A2 enzyme was prepared from cytosolic fractions of transiently transfected HEK cells. All other PDE's were GST Tag human enzyme expressed in insect cells and were obtained from BPS Bioscience (San Diego, Calif.): PDE1A (Cat#60010), human PDE2A1 (Cat#60020), PDE3A (Cat#60030), PDE4A1A (Cat#60040), PDE5A1 (Cat#60050), PDE6C (Cat#60060), PDE7A (Cat#60070), PDE8A1 (Cat#60080), PDE9A2 (Cat#60090), PDE11A4 (Cat#60110).
Assays for PDE 1 through 11 were performed in parallel at room temperature in 384-well microtiter plates with an incubation volume of 20.2 μL. Solutions of test compounds were prepared in DMSO and serially diluted with DMSO to yield 30 μL of each of ten solutions differing by 3-fold in concentration, at 32 serial dilutions per plate. […] A Labcyte POD 810 (Labcyte, Sunnyvale, Calif.) was used to dispense 200 nL from each well of the titration plate to make eleven copies of the assay plate for each titration, one copy for each PDE enzyme. A solution of each enzyme (dilution from aliquots, sufficient to produce 20% substrate conversion) and a separate solution of FAM-labeled cAMP or FAM-labeled cGMP from Molecular Devices (Sunnyvale, Calif., product # R7506 or cGMP#R7508), at a final concentration of 50 nM were made in the assay buffer (10 mM Tris HCl, pH 7.2, 10 mM MgCl2, 0.05% NaN3 0.01% Tween-20, and 1 mM DTT). Note that the substrate for PDE2 is 50 nM FAM cAMP containing 1000 nM of cGMP. The enzyme and the substrate were then added to the assay plates in two consecutive additions of 10 μL and then shaken to mix. The reaction was allowed to proceed at room temperature for 60 minutes. A binding solution was then made from the kit components, comprised of 80% Solution A, 20% Solution B and binding reagent at a volume of 1/600 the total binding solution. The enzymatic reaction was stopped by addition of 60 μL of the binding solution to each well of the assay plate. The plates were sealed and shaken for 10 seconds. The plates were incubated at room temperature for one hour, then the parallel and perpendicular fluorescence was measured using a Tecan Genios Pro plate reader (Tecan, Switzerland). The apparent inhibition constants for the compounds against all 11 PDE's was determined from the parallel and perpendicular fluorescent readings as described for PDE10 FP assay using the following apparent KM values for each enzyme and substrate combination: PDE1A (FAM cGMP) 70 nM, human PDE2A1 (FAM cAMP) 10,000 nM, PDE3A (FAM cAMP) 50 nM, PDE4A1A (FAM cAMP) 1500 nM, PDE5A1 (FAM cGMP) 400 nM, PDE6C (FAM cGMP) 700 nM, PDE7A (FAM cAMP) 150 nM, PDE8A1 (FAM cAMP) 50 nM, PDE9A2 (FAM cGMP) 60 nM, PDE10A2 (FAM cAMP) 150 nM, PDE11A4 (FAM cAMP) 1000 nM. The intrinsic PDE2 inhibitory activity of a compound which may be used in accordance with the present invention may be determined by these assays.

human PDE2A1, sequence (O00408 other isoform, or with tags, fused parts or gaps): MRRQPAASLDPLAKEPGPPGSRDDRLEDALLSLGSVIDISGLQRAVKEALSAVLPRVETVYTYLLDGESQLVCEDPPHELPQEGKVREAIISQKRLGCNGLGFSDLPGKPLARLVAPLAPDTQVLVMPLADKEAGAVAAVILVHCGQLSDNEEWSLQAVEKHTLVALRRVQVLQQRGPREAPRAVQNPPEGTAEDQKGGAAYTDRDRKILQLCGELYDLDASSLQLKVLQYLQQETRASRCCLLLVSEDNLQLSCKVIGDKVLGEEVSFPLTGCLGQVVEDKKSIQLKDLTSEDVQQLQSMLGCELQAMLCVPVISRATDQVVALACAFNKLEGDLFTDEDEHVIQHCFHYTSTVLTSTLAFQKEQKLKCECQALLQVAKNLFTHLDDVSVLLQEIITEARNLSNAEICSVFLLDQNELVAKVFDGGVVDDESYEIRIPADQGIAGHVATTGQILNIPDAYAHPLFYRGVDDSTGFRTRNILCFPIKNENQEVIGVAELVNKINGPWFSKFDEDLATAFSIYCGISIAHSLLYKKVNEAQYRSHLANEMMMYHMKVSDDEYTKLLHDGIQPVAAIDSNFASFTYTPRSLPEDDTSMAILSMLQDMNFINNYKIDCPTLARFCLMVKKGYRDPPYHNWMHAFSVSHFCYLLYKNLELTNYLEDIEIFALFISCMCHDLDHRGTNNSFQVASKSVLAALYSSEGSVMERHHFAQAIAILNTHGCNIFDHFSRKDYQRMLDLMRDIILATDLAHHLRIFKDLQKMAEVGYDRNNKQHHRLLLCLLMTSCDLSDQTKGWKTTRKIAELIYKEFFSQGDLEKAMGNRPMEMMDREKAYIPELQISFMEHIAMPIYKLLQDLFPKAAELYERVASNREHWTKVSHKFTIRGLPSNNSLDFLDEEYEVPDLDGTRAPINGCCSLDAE

Row | inhibition at 3 µM [%] | SMILES
1 | 16 | Cc1nc(-c2nnc(C(C)c3ccc(C(F)(F)F)cc3F)n2C)cc(=O)[nH]1 (single isomer, unassigned) [Example 63, (R)- or (S)-6-(5-(1-(2-fluoro-4-(trifluoromethyl)-phenyl)ethyl)-4-methyl-4H-1,2,4-triazol-3-yl)-2-methylpyrimidin-4(3H)-one]
2 | 33 | Cc1nc(-c2nnn3c2CCCC3c2ccc(C(F)(F)F)cc2F)cc(=O)[nH]1 (single isomer, unassigned) [Example 49, (R)- or (S)-6-(7-(2-fluoro-4-(trifluoromethyl)phenyl)-4,5,6,7-tetrahydro-[1,2,3]triazolo[1,5-a]pyridin-3-yl)-2-methylpyrimidin-4(3H)-one]
3 | 27 | Cc1nc(-c2nnc3n2CCC[C@H]3c2ccc(C(F)(F)F)cc2)cc(=O)[nH]1 (mixture of isomers) [Example 71, (R)- and (S)-2-Methyl-6-(8-(4-(trifluoromethyl)phenyl)-5,6,7,8-tetrahydro-[1,2,4]triazolo[4,3-a]pyridin-3-yl)pyrimidin-4(3H)-one]

same assay, conditions: FAM cAMP 50 nM with 1000 nM cGMP

Row | SMILES | Ki [µM]
4 | Cc1nc(-c2nnn3c2CCC[C@]3(C)c2ccc(C(F)(F)F)cc2Cl)cc(=O)[nH]1 (single isomer, unassigned) [Example 88] | > 2.96
5 | Cc1nc(-c2nnc3n2CCCC3(C)c2ccc(C(F)(F)F)cc2)cc(=O)[nH]1 (single isomer, unassigned) [Example 72, (S)- or (R)-2-methyl-6-(8-methyl-8-(4-(trifluoromethyl)phenyl)-5,6,7,8-tetrahydro-[1,2,4]triazolo[4,3-a]pyridin-3-yl)pyrimidin-4(3H)-one] | 0.864
6 | Cc1nc(-c2cnn(C(C)c3ccc(C(F)(F)F)cc3C)n2)cc(=O)[nH]1 (single isomer, unassigned) [Example 6, (S)- or (R)-2-methyl-6-(2-(1-(2-methyl-4-(trifluoromethyl)phenyl)ethyl)-2H-1,2,3-triazol-4-yl)pyrimidin-4(3H)-one] | ~1.9
7 | Cc1nc(-c2cn([C@@H](C)c3ccc(C(F)(F)F)cc3Cl)nn2)cc(=O)[nH]1 (single isomer, unassigned) [Example 35] | 0.0415
8 | Cc1nc(-c2nnn3c2CCC[C@]3(C)c2ccc(OC(F)(F)F)cc2)cc(=O)[nH]1 (single isomer, unassigned) [Example 76] | 0.182
9 | Cc1nc(-c2cnn([C@H](C)c3ccc(C(F)(F)F)cc3Cl)n2)cc(=O)[nH]1 (single isomer, unassigned) [Example 2] | ~1.3
10 | Cc1nc(-c2cnn(C(C)c3ccc(C(F)(F)F)cc3F)n2)cc(=O)[nH]1 (single isomer, unassigned) [Example 4, (S)- or (R)-6-(2-(1-(2-fluoro-4-(trifluoromethyl)phenyl)ethyl)-2H-1,2,3-triazol-4-yl)-2-metylpyrimidin-4(3H)-one] | 1.03
11 | Cc1nc(-c2nnc(C(C)(C)c3ccc(C(F)(F)F)cc3F)n2C)cc(=O)[nH]1 [Example 69, 6-(5-(2-(2-Fluoro-4-(trifluoromethyl)phenyl)propan-2-yl)-4-methyl-4H-1,2,4-triazol-3-yl)-2-methylpyrimidin-4(3H)-one] | 1.13
12 | Cc1nc(-c2nnn3c2CCCC3(C)c2ccc(C(F)(F)F)cc2F)cc(=O)[nH]1 (single isomer, unassigned) [Example 59, (S)- or (R)-6-(7-(2-fluoro-4-(trifluoromethyl)phenyl)-7-methyl-4,5,6,7-tetrahydro-[1,2,3]triazolo[1,5-a]pyridin-3-yl)-2-methylpyrimidin-4(3H)-one] | 0.178
13 | Cc1nc(-c2cn(C(C)c3cc(F)c(C(F)(F)F)cc3F)nn2)cc(=O)[nH]1 (single isomer, unassigned) [Example 24, (S)- or (R)-6-(1-(1-(2,5-difluoro-4-(triufluoromethyl)phenyl)ethyl)-1H-1,2,3-triazol-4-yl)-2-methylpyrimidin-4(3H)-one] | 0.0388
14 | Cc1nc(-c2nnn3c2CCCCC3c2ccc(C(F)(F)F)cc2)cc(=O)[nH]1 (single isomer, unassigned) [Example 52, (S)- or (R)-2-methyl-6-(8-(4-(trifluoromethyl)phenyl)-5,6,7,8-tetrahydro-4H-[1,2,3]triazolo[1,5-a]azepin-3-yl)pyrimidin-4(3H)-one] | 0.139
15 | CCc1ccc([C@]2(C)CCCc3c(-c4cc(=O)[nH]c(C)n4)nnn32)c(F)c1 (single isomer, unassigned) [Example 96] | 0.43
16 | Cc1nc(-n2cnc([C@H](C)c3ccc(C(F)(F)F)cc3F)n2)cc(=O)[nH]1 (single isomer, unassigned) [Example 85] | 1.2
17 | CCC1(c2ccc(C(F)(F)F)cc2)CCCc2c(-c3cc(=O)[nH]c(C)n3)nnn21 (single isomer, unassigned) [Example 56, (R)- or (S)-6-(7-ethyl-7-(4-(trifluoromethyl)phenyl)-4,5,6,7-tetrahydro-[1,2,3]triazolo[1,5-a]pyridin-3-yl)-2-methylpyrimidin-4(3H)-one] | 0.616

The next lines start with the values.

Row | Ki [µM] | SMILES
18 | 0.0159 | Cc1nc(-c2nnc(C(C)c3ccc(C(F)(F)F)cc3Cl)[nH]2)cc(=O)[nH]1 (single isomer, unassigned) [Example 65, (R)- or (S)-6-(5-(1-(2-chloro-4-(trifluoromethyl)-phenyl)ethyl)-4H-1,2,4-triazol-3-yl)-2-methylpyrimidin-4(3H)-one]
19 | 0.0097 | Cc1nc(-c2cn(C(c3ccc(C(F)(F)F)cc3F)C3CC3)nn2)cc(=O)[nH]1 (single isomer, unassigned) [Example 42]
20 | 0.0017 | Cc1nc(-c2cn(C(C)(C)c3ccc(C(F)(F)F)cc3Cl)nn2)cc(=O)[nH]1 [Example 30, 6-(1-(2-(2-chloro-4-(trifluoromethyl)phenyl)propan-2-yl)-1H-1,2,3-triazol-4-yl)-2-methylpyrimidin-4(3H)-one]
21 | 0.0092 | CCCCc1c(-c2cc(=O)[nH]c(C)n2)nnn1C(C)c1ccc(C(F)(F)F)cc1Cl (single isomer, unassigned) [Example 45, (R)- or (S)-6-(5-butyl-1-(1-(2-chloro-4-(trifluoromethyl)phenyl)ethyl)-1H-1,2,3-triazol-4-yl)-2-methylpyrimidin-4(3H)-one]
22 | 0.0049 | Cc1nc(-c2cn(C(C)(C)c3ccc(C4CC4)cc3Cl)nn2)cc(=O)[nH]1 [Example 34, 6-(1-(2-(2-chloro-4-cyclopropylphenyl)propan-2-yl)-1H-1,2,3-triazol-4-yl)-2-methylpyrimdin-4(3H)-one]
23 | 0.0072 | Cc1nc(-c2cn(C(c3ccc(C(F)(F)F)cc3F)C(C)C)nn2)cc(=O)[nH]1 (single isomer, unassigned) [Example 39, (R)- or (S)-6-(1-(1-(2-fluoro-4-(trifluoromethyl)phenyl)-2-methylpropyl)-1H-1,2,3-triazol-4-yl)-2-methylpyrimidin-4(3H)-one]
24 | 0.0032 | Cc1nc(-c2cn(C(C)c3ccc(C4CC4)cc3Cl)nn2)cc(=O)[nH]1 (single isomer, unassigned) [Example 26, (S)- or (R)-6-(1-(1-(2-chloro-4-cyclopropylphenyl)ethyl)-1H-1,2,3-triazol-4-yl)-2-methylpyrimidin-4(3H)-one]
25 | 0.038 | Cc1nc(-c2cn(C(c3ccc(C(F)(F)F)cc3F)C3CC3)nn2)cc(=O)[nH]1 (single isomer, unassigned) [Example 41]
26 | 0.0177 | Cc1nc(-c2cn(C(C)c3ccc(C(F)(F)F)c(F)c3F)nn2)cc(=O)[nH]1 (single isomer, unassigned) [Example 22, (S)- or (R)-6-(1-(1-(2,3-difluoro-4-(trifluoromethyl)phenyl)ethyl)-1H-1,2,3-triazol-4-yl)-2-methylpyrimidin-4(3H)-one]

Reference: US10358435B2, “Triazolyl pyrimidinone compounds as PDE2 inhibitors” (Merck Sharp & Dohme Corp., priority 2015, dated 2019)
